The record followed here is the METLIN SMRT retention time set (Domingo-Almenara et al. 2019).

This series can be described thus: gradient 5% acetonitrile 3 min, to 50% in 2 min, to 85% in 15 min, held 3 min, 100 µL/min. Particulars: column: Zorbax Extend-C18 2.1 x 50 mm; eluents: water / acetonitrile, 0.1% formic acid. The method in brief:
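Using water and acetonitrile that each contained 0.1% formic acid, mixtures of ~100 pure standards were separated at 100 μL/min on a Zorbax Extend-C18 column (2.1 × 50 mm, 1.8 μm). The HPLC fed a quadrupole time-of-flight mass spectrometer working in positive and negative ionization mode, with dead and dwell volumes of 40 μL and 900 μL. Data were acquired over 3 months. Retention time was read from computationally picked adduct peaks after manual inspection of each.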
Compound `O=C(Nc1ccccc1)C1CCN(C(=O)C2Sc3ccccc3NC2=O)CC1` (stereo unspecified) showed an RP-LC retention time of 731 s.
The compound `Cn1ncc2c3ccccc3n(CC(=O)N3CCC(C(N)=O)CC3)c2c1=O` came in with an RP-LC retention time of 611 s.
`O=C(NCCC1CCN(C(=O)Nc2ccccc2F)CC1)c1ccoc1` registered an RP-LC retention time of 713 s.
For `Cc1nn(-c2nc3ccccc3[nH]2)c2c1C(=O)CC(c1ccc(C(C)C)cc1)C2` (stereo unspecified) the value was 1230 s; for `Cc1ccc(C(=O)N2CCOc3ccc(N(C)C)cc3C2)s1`, 632 s; for `CCn1cnc(S(=O)(=O)N2CCC(C(=O)N3CCN(c4cccc(C(F)(F)F)c4)CC3)CC2)c1`, 868 s.
Next, `O=S(=O)(c1cccc(Cl)c1)N1CCC(c2noc(-c3ccccc3)n2)CC1`: 1160 s; `CCN1CCN(CCNC(=O)c2ccc3c(c2)N(C)C(=O)C2CCCCN32)CC1` (stereo unspecified): 579 s; `COc1ccc(/C=C/c2cc3c(cc2OC)OCCO3)cc1O`: 938 s.
For `Cc1ccc(CNC2=NCCNC23CCN(S(=O)(=O)c2ccc(Cl)cc2)CC3)cc1` the value was 778 s.
As for `CCn1cnnc1C1CCN(C(=O)c2sccc2C)CC1`, the RP-LC retention time stood at 561 s.
Next, `COCCc1nnc(NC(=O)c2cn(C)nc2OC)o1`: 558 s.
Next, `CCC(CC)NC(=O)C1CC(=O)N(CCc2c[nH]c3ccc(Cl)cc23)C1` (stereo unspecified): 796 s; `CCN1C(=O)c2cc(S(=O)(=O)Nc3ccc(F)c(Cl)c3)ccc2Oc2cccnc21`: 1090 s.
For `O=C(Cn1nc(-c2ccccc2)c2cc(Cl)ccc21)NCc1cccnc1` the value was 712 s; for `Cc1nc(C(=O)N2CCSCC2)c(C)o1`, 620 s.
As for `CCc1ccc(-n2c(-c3ccc(Cl)cc3)cn3c4c(=O)n(C)c(=O)n(C)c4nc23)cc1`, the RP-LC retention time came to 1150 s.
`Cc1nc(NC2=NCN(Cc3cccnc3)CN2)nc2c(C)cccc12`: the RP-LC retention time worked out at 592 s.
Next, `COc1ccc(-c2c(C)noc2NC(C)=O)cc1S(=O)(=O)N(C)c1ccc(C)cc1`: 830 s; `COc1ccc(NC(=O)c2cnc(N3CCN(C4CCCCC4)CC3)nc2N)cc1`: 631 s.
Next, `Cc1nc2c(c(N(C)CCc3c(C)nn(C)c3C)n1)CCC2`: 588 s; `Cc1noc(-c2ccnc(-n3ncc(C(=O)N4CCN(Cc5ccccc5)CC4)c3C)c2)n1`: 645 s; `O=C(Cn1cnc2nc(N3CCCC(C(=O)NC4CC4)C3)sc2c1=O)NC1CCCCC1` (stereo unspecified): 652 s.
`C=CCn1c(C)c(CC(=O)NCC(C)C)c(=O)n2nc(-c3ccccc3)nc12` returned an RP-LC retention time of 779 s.
For `CN(C)C(=O)c1nc2ccccn2c1-c1ccsc1` the value was 595 s; for `Cc1cccc(-c2noc(-c3cccnc3N3CCN(c4ccccc4)CC3)n2)c1`, 1400 s; for `Cc1noc(C)c1CCC(=O)N1CCCn2ccnc2C1C(C)C` (stereo unspecified), 590 s.
Next, `Cn1nccc1-c1cccc(-c2noc(-c3cccs3)n2)c1`: 1030 s.
Next, `COc1ccc(-c2nc3ncccn3c2Nc2cccc(C(F)(F)F)c2)cc1`: 903 s; `Cc1ccc2c(Nc3ccc(F)cc3C)c(-c3nc(C)no3)cnc2n1`: 756 s; `COc1ccc(-c2c(C)noc2NC(C)=O)cc1S(=O)(=O)N1CCCC1`: 673 s.
In the case of `O=C(Cc1csc(NS(=O)(=O)c2ccc(Cl)cc2)n1)NCc1cccs1`, the RP-LC retention time turned out to be 725 s.
`CCOCCCNC(=O)N1CCC(c2noc(-c3ccncc3)n2)C1` (stereo unspecified) showed an RP-LC retention time of 643 s.
With `O=C(NCCc1c[nH]c2ccccc12)c1cc2cccnc2n(Cc2ccc(F)cc2)c1=O`, the RP-LC retention time was 1090 s.
For `O=C(Nc1ccc2c(c1)OCO2)c1coc(NC(=O)c2ccco2)n1` the value was 651 s; for `COC(=O)c1cccc(Nc2c(-c3ccccc3)nc3cnc(Br)cn23)c1`, 949 s; for `Cn1cc(-c2ccccc2)cc1C(=O)N1CCN(C2CCCCC2)CC1`, 701 s.
Next, `CCCc1noc(-c2cccnc2N2CCCN(C(=O)Nc3cc(C)ccc3C)CC2)n1`: 995 s; `Cc1noc2ncnc(N3CCC(C(=O)N4CCCc5ccccc54)CC3)c12`: 865 s.
For `O=C(NCCc1ccccc1)N1C[C@@H]2C[C@H]1C[C@@H]2NS(=O)(=O)c1ccccc1` the value was 820 s; for `COc1ccc(-c2ncc3c(n2)CCN(C(=O)Nc2cccc(Br)c2)C3)cc1`, 1010 s.
Take `O=C(Nc1nnc2n1CCS2)c1ccc2c(c1)OCO2`: the RP-LC retention time is 590 s.
For `O=C(NCC1(c2cccs2)CCOCC1)c1cccs1` the value was 705 s; for `CCCn1ccc2sc(C)c(C(=O)NCc3ccc(C)o3)c2c1=O`, 867 s; for `CCOc1ccc(C2c3[nH]c4ccccc4c3CCN2C(=O)C2CC2)cc1` (stereo unspecified), 1090 s.
Next, `CCC(=O)N1CCc2cc(N3CC(C(=O)NCc4ccc(C)cc4)CC3=O)ccc21` (stereo unspecified): 756 s; `CCNc1nc(C)cc(N2CCN(C(=O)Nc3cc(OC)ccc3OC)CC2)n1`: 626 s; `Cc1cccc(N2CCN(C(=O)C3CCCN(c4cnc5nccnc5c4)C3)CC2)c1` (stereo unspecified): 775 s.
For `CC1CC(=O)c2cnc(N3CCN(c4ncccn4)CC3)nc2C1` (stereo unspecified) the value was 798 s; for `Cn1nnc2cc(-c3noc(CNC(=O)c4ccccc4)n3)ccc21`, 708 s.
As for `O=C(NCc1ccccc1Br)c1cn2c(n1)CCCC2`, the RP-LC retention time was 610 s.
Next, `Cn1c(=O)n(C)c2cc(S(=O)(=O)c3ccc(F)cc3)c(NC(=O)c3ccccc3F)cc21`: 882 s; `Fc1ccc(-c2nc(-c3cccc(-c4ccn[nH]4)c3)no2)c(F)c1`: 992 s; `Cc1ccc(C(=O)NCCc2nc3cccnc3n2C(C)C)c(C)c1`: 695 s.
The compound `O=C(NCC1CC1)c1cn(-c2cc(-c3nc(C4CC4)no3)ccn2)cn1` registered an RP-LC retention time of 848 s.
For `O=S(=O)(Nc1cccc(Cl)c1)c1ccc2nncn2c1` the value was 700 s.
For `Cc1ccc(CNC(=O)C2(C)CN(S(C)(=O)=O)CC(=O)N2Cc2ccc(C)cc2)cc1` (stereo unspecified) the value was 899 s; for `Cc1ccc2c(C(=O)NCc3ccc(F)cc3F)cc(NC(=O)C(C)C)cc2n1`, 660 s.
Compound `O=C(CSc1nc(CC(=O)N2CCN(c3ccccn3)CC2)cs1)c1cccs1` returned an RP-LC retention time of 567 s.
For `Fc1ccc(-c2nc(-c3ccc(-n4cccn4)nc3)no2)cc1F` the value was 1070 s; for `COc1ccc(N2CC(c3noc(-c4ccc(Cl)cc4OC)n3)CC2=O)cc1` (stereo unspecified), 971 s.
As for `CCCNC(=O)C1CCCN(c2nnc3c(Cl)cccn23)C1` (stereo unspecified), the RP-LC retention time turned out to be 571 s.
Turning to `CCC(C)NC(=O)c1cc(C)nc2ccc(F)cc12` (stereo unspecified), the RP-LC retention time came out at 680 s.
On to `O=C(Cc1csc2nc(-c3ccccc3)cn12)NCCCc1ccccc1`, for which the RP-LC retention time was 841 s.
In the case of `CCC1(O)CCC12CCN(C(=O)C1CC1)CC2` (stereo unspecified), the RP-LC retention time was 678 s.
Next, `COC(=O)c1ccccc1NC1=NS(=O)(=O)c2ccccc21`: 934 s.
Take `CS(=O)(=O)N1CC(F)(F)C[C@H]1c1nc(-c2ccccc2)no1`: the RP-LC retention time was determined as 858 s.
Next, `CC(C)Oc1ccc(NC(=O)C2CCN(S(C)(=O)=O)c3ccccc3O2)cc1` (stereo unspecified): 935 s; `CCn1cc(-c2ccc(Cl)cc2)cc1C(=O)NCc1ccccn1`: 790 s; `CC(=O)Nc1ccc(OCC(O)CNC(C)(C)CC(C)(C)C)cc1` (stereo unspecified): 562 s.
Next, `CCCN(C)c1nccnc1OC1CCN(C(=O)CC)C1` (stereo unspecified): 694 s.
Next, `Cc1ccc(Cn2cc(CCC(=O)N3CCN(c4ccccn4)CC3)c3ccccc32)cc1`: 777 s.
For `CC(=O)c1ccc(N2CCN(C(=O)Cn3ccc4ccc(-c5nnc(C)o5)cc43)CC2)cc1`, the RP-LC retention time turned out to be 764 s.
For `O=S(=O)(c1ccc2c(c1)CCC2)N1CCCC1c1noc(CO)n1` (stereo unspecified) the value was 779 s; for `NC(=O)C1CCN(C(=O)Cn2c(=O)nc(-c3ccccc3)c3cc(Cl)ccc32)CC1`, 639 s.
For `CCn1cc(-c2nc(C(=O)Nc3ccccc3OC)cs2)c2cccnc21` the value was 1180 s; for `COc1ccccc1-c1nc(-c2cn(Cc3cccc(F)c3)nn2)no1`, 936 s.
Compound `CC1=C(C(=O)Nc2cc(Cl)ccc2C(=O)NC2CCC(C)CC2)SCCO1` (stereo unspecified) yielded an RP-LC retention time of 1310 s.
`CC(=O)N1CCc2cc(N3CC(C(=O)NCc4ccc5c(c4)OCO5)CC3=O)ccc21` (stereo unspecified) registered an RP-LC retention time of 659 s.
`CCC(C)OC(=O)C1=C(C)NC(=O)NC1c1ccc(OC)c(O)c1` (stereo unspecified): the RP-LC retention time is 693 s.
Next, `CC(C)(C)OC(=O)Cn1cnc2c(-c3ccc(Cl)cc3)csc2c1=O`: 1120 s.
